Conditions: in vivo

O=S(=O)(O)O [sulfuric acid]
irritation or injury of a hand put into the solution: an irritation would occur within a relatively short span of time
